The source made the active and inactive calls. No cut-off for these calls is given here.
What was measured:
K562 [1] = assay: Inhibition of HSP70-Bim protein protein interaction in human K562 cells assessed as decrease in EIF4e protein expression at 2 uM incubated for 12 hrs by Western blot analysis; assay type: cell-based
[2] = AUCt in Sprague-Dawley rat at 3 mg/kg, iv measured upto 24 hrs by LC-MS/MS analysis; assay type: ADME, organism-based; parameters: time < 24 hrs, dose 3 mg/kg, route iv; conditions: in vivo
[3] = Inhibition of Fam-labeled BimBH3 peptide binding to N-terminal 6His-tagged human recombinant HSP70 NBD (1 to 383 residues) Y149A mutant expressed in Escherichia coli BL21 (DE3) assessed as inhibition constant incubated for 24 hrs by fluorescence polarization assay
K562 [4] = assay: Inhibition of HSP70-Bim protein protein interaction in human K562 cells assessed as decrease in AKT phosphorylation at 2 uM incubated for 12 hrs by Western blot analysis; assay type: cell-based
K562 [5] = assay: Inhibition of HSP70-Bim protein protein interaction in human K562 cells assessed as decrease in AKT protein expression at 2 uM incubated for 12 hrs by Western blot analysis; assay type: cell-based
K562 [6] = assay: Induction of apoptosis in HSP70 shRNA transfected human K562 cells assessed as increase in Annexin V+ cells at 2 uM incubated for 24 hrs by Annexin V/PI staining based flow cytometry analysis; assay type: functional, cell-based
HEK293 = assay: Induction of apoptosis in human HEK293 cells assessed as apoptotic rate at 15 uM incubated for 24 hrs by annexin V/PI staining based flow cytometry analysis relative to control; assay type: toxicity, cell-based; conditions: hek293, 24 h
K562 [7] = assay: Induction of apoptosis in Bim shRNA transfected human K562 cells assessed as increase in Annexin V+ cells at 2 uM incubated for 24 hrs by Annexin V/PI staining based flow cytometry analysis; assay type: functional, cell-based
[8] = Cmax in Sprague-Dawley rat at 3 mg/kg, iv measured upto 24 hrs by LC-MS/MS analysis; assay type: ADME, organism-based; parameters: dose 3 mg/kg, time < 24 hrs, route iv; conditions: in vivo
[9] = Inhibition of Fam-labeled BimBH3 peptide binding to N-terminal 6His-tagged human recombinant HSP70 NBD (1 to 383 residues) expressed in Escherichia coli BL21 (DE3) assessed as inhibition constant incubated for 24 hrs by fluorescence polarization assay
Mus musculus [10] = assay: In vivo disruption of HSP70-Bim protein protein interaction in BALB/c nu/nu mouse xenografted with Bcr-Abl independent human Imatinib-resistant K562-R1 cells assessed as destabilization of AKT protein level at 2 mg/kg, ip administered every day for 14 days and measured on day 15 by immunoblot analysis; assay type: functional, organism-based; conditions: time 15.0 day
K562 [11] = assay: Induction of apoptosis in Bim shRNA transfected human K562 cells assessed as increase in cleaved PARP level at 2 uM incubated for 24 hrs by Western blot analysis; assay type: functional, cell-based
BV-173 = assay: Induction of apoptosis in human BV-173 cells incubated for 24 hrs by annexin V/PI staining based flow cytometry analysis; assay type: functional, cell-based; conditions: BV-173, 24 h
[12] = Inhibition of Bim (unknown origin)- N-terminal 6His-tagged human recombinant HSP70 NBD (1 to 383 residues) expressed in Escherichia coli BL21 (DE3) protein protein interaction assessed as suppression of BimBH3-stimulated HSP70 ATPase activity
K562 [13] = assay: Inhibition of HSP70-Bim protein protein interaction in human K562 cells assessed as decrease in EIF4e phosphorylation at 2 uM incubated for 12 hrs by Western blot analysis; assay type: cell-based
Mus musculus [14] = assay: In vivo disruption of HSP70-Bim protein protein interaction in BALB/c nu/nu mouse xenografted with Bcr-Abl independent human Imatinib-resistant K562-R1 cells at 2 mg/kg, ip administered every day for 14 days and measured on day 15 by Co-IP analysis; assay type: functional, organism-based; conditions: time 15.0 day
Mus musculus [15] = assay: In vivo disruption of HSP70-Bim protein protein interaction in BALB/c nu/nu mouse xenografted with Bcr-Abl independent human Imatinib-resistant K562-R1 cells assessed as destabilization of EIF4e protein level at 2 mg/kg, ip administered every day for 14 days and measured on day 15 by immunoblot analysis; assay type: functional, organism-based; conditions: time 15.0 day
[16] = Half life in Sprague-Dawley rat at 3 mg/kg, iv measured upto 24 hrs by LC-MS/MS analysis; assay type: ADME, organism-based; conditions: in vivo
[17] = Toxicity in BALB/c nu/nu mouse xenografted with Bcr-Abl independent human Imatinib-resistant K562-R1 cells assessed as reduction in body weight at 2 mg/kg, ip administered every day for 14 days and measured every 3 days; assay type: organism-based; conditions: in vivo, 336 h, time 14 day
BaF3 = assay: Induction of apoptosis in mouse BaF3 cells assessed as apoptotic rate at 15 uM incubated for 24 hrs by annexin V/PI staining based flow cytometry analysis relative to control; assay type: toxicity, cell-based; conditions: baf3, 24 h
[18] = Induction of apoptosis in human Imatinib-resistant K562-R3 cells incubated for 24 hrs by annexin V/PI staining based flow cytometry analysis; assay type: functional; conditions: Imatinib-resistant K562-R3 cell
[19] = Antitumor activity against Bcr-Abl independent human Imatinib-resistant K562-R1 cells xenografted in BALB/c nu/nu mouse assessed as reduction in tumor weight by measuring T/C ratio at 2 mg/kg, ip administered every day for 14 days and measured on day 15; assay type: functional; conditions: time 14 day
[20] = system: Imatinib-resistant K562-R1; assay: Antitumor activity against Bcr-Abl independent human Imatinib-resistant K562-R1 cells xenografted in BALB/c nu/nu mouse assessed as reduction in tumor growth at 2 mg/kg, ip administered every day for 14 days and measured on day 15; assay type: functional, organism-based; conditions: time 15.0 day
[21] = Inhibition of Fam-labeled BimBH3 peptide binding to wild type N-terminal 6His-tagged human recombinant HSP70 NBD (1 to 383 residues) expressed in Escherichia coli BL21 (DE3) assessed as dissociation constant incubated for 24 hrs by fluorescence polarization assay
K562 [22] = assay: Induction of apoptosis in HSP70 shRNA transfected human K562 cells assessed as increase in cleaved PARP level at 2 uM incubated for 24 hrs by Western blot analysis; assay type: functional, cell-based
K562 [23] = assay: Inhibition of HSP70-Bag3 protein protein interaction in human K562 cells at 10 uM incubated for 12 hrs by Co-IP analysis; assay type: cell-based
[24] = Tmax in Sprague-Dawley rat at 3 mg/kg, iv measured upto 24 hrs by LC-MS/MS analysis; assay type: ADME, organism-based; conditions: in vivo
[25] = Clearance in Sprague-Dawley rat at 3 mg/kg, iv measured upto 24 hrs by LC-MS/MS analysis; assay type: ADME, organism-based; conditions: in vivo
K562 [26] = assay: Inhibition of HSP70-Bim protein protein interaction in human K562 cells incubated for 12 hrs by Co-IP analysis; assay type: cell-based; conditions: dose 0-5 µM
[27] = Inhibition of Fam-labeled BimBH3 peptide binding to N-terminal 6His-tagged human recombinant HSP70 NBD (1 to 383 residues) D225T mutant expressed in Escherichia coli BL21 (DE3) assessed as dissociation constant incubated for 24 hrs by fluorescence polarization assay
K562 [28] = assay: Induction of apoptosis in human K562 cells incubated for 24 hrs by annexin V/PI staining based flow cytometry analysis; assay type: functional, cell-based; conditions: K562, 24 h
[29] = Inhibition of Fam-labeled BimBH3 peptide binding to N-terminal 6His-tagged human recombinant HSP70 NBD (1 to 383 residues) D225T mutant expressed in Escherichia coli BL21 (DE3) assessed as inhibition constant incubated for 24 hrs by fluorescence polarization assay
[30] = Inhibition of Fam-labeled BimBH3 peptide binding to N-terminal 6His-tagged human recombinant HSP70 NBD (1 to 383 residues) Y149A mutant expressed in Escherichia coli BL21 (DE3) assessed as dissociation constant incubated for 24 hrs by fluorescence polarization assay

For `CCN(CC)CCNC1=C(C#N)C(=O)c2cccc3c(SC4CCCCC4)ccc1c23`, the inhibition (K562 [1]) was “Active”, the AUC(0-t) at 24 h [2] was 12200 ng·h/mL and the Ki [3] was 2720 nM. The inhibition (K562 [4]) was “Active”, the inhibition (K562 [5]) was “Active” and the Activity (K562 [6]) was “inactive”. The Activity (HEK293) was under 10%, the Activity (K562 [7]) was “inactive” and the Cmax [8] was 2300 ng/mL. The Ki [9] was 250 nM, the Activity (Mus musculus [10]) was “Active” and the Activity (K562 [11]) was “inactive”. For the same molecule, the EC50 (BV-173) was 620 nM, the IC50 [12] was 15800 nM and the inhibition [12] was “Dose-Dependent Effect”. For the same molecule, the inhibition (K562 [13]) was “Active”, the Activity (Mus musculus [14]) was “Active” and the Activity (Mus musculus [15]) was “Active”. The half-life [16] was 5.2 h, the Activity [17] was “Non-Toxic” and the Activity (BaF3) was under 10%. For the same molecule, the EC50 [18] was 340 nM, the T/C [19] was 33.51% and the Activity [20] was “Active”. For the same molecule, the Kd [21] was 210 nM, the Activity (K562 [22]) was “inactive” and the inhibition (K562 [23]) was “inactive”. The Tmax [24] was 1 h, the clearance [25] was 4.1 mL/min/kg and the inhibition (K562 [26]) was “Dose-Dependent Effect”. For the same molecule, the Kd [27] was 3120 nM, the EC50 (K562 [28]) was 1300 nM and the Ki [29] was 5150 nM. The Kd [30] was 1580 nM.

Source: ChEMBL document CHEMBL5375966, “Exploiting the "Hot-Spots" of Hsp70-Bim Protein-Protein Interaction to Optimize the 1-Oxo-1H-phenalene-2,3-dicarbonitrile Analogues as Specific Hsp70-Bim Inhibitors” (J Med Chem, 2023)
